In ChEMBL document CHEMBL4507296 (2021):

How the values were obtained:
[1] = target: Tyrosine-protein kinase Fes/Fps (Homo sapiens) (UniProt P07332); conditions: Compound concentration 1000.0 nM
[2] = target: Cyclin-dependent kinase 16 (Homo sapiens) (UniProt Q00536); conditions: Compound concentration 1000.0 nM
[3] = target: 3-phosphoinositide-dependent protein kinase 1 (Homo sapiens) (UniProt O15530); conditions: Compound concentration 1000.0 nM
[4] = target: 5-hydroxytryptamine receptor 2B (Homo sapiens) (UniProt P41595); conditions: Compound concentration 10.0 uM
[5] = target: Phosphatidylinositol 4,5-bisphosphate 3-kinase catalytic subunit delta isoform (Homo sapiens) (UniProt O00329); conditions: Compound concentration 1000.0 nM
[6] = target: Serine/threonine-protein kinase/endoribonuclease IRE1 (Homo sapiens) (UniProt O75460); conditions: Compound concentration 1000.0 nM
[7] = target: Phosphatidylinositol 4-phosphate 3-kinase C2 domain-containing subunit beta (Homo sapiens) (UniProt O00750); conditions: Compound concentration 1000.0 nM
[8] = target: Mitogen-activated protein kinase kinase kinase 19 (Homo sapiens) (UniProt Q56UN5); conditions: Compound concentration 1000.0 nM
Sequence of Mitogen-activated protein kinase kinase kinase 19 (Homo sapiens) (Q56UN5 whole entry): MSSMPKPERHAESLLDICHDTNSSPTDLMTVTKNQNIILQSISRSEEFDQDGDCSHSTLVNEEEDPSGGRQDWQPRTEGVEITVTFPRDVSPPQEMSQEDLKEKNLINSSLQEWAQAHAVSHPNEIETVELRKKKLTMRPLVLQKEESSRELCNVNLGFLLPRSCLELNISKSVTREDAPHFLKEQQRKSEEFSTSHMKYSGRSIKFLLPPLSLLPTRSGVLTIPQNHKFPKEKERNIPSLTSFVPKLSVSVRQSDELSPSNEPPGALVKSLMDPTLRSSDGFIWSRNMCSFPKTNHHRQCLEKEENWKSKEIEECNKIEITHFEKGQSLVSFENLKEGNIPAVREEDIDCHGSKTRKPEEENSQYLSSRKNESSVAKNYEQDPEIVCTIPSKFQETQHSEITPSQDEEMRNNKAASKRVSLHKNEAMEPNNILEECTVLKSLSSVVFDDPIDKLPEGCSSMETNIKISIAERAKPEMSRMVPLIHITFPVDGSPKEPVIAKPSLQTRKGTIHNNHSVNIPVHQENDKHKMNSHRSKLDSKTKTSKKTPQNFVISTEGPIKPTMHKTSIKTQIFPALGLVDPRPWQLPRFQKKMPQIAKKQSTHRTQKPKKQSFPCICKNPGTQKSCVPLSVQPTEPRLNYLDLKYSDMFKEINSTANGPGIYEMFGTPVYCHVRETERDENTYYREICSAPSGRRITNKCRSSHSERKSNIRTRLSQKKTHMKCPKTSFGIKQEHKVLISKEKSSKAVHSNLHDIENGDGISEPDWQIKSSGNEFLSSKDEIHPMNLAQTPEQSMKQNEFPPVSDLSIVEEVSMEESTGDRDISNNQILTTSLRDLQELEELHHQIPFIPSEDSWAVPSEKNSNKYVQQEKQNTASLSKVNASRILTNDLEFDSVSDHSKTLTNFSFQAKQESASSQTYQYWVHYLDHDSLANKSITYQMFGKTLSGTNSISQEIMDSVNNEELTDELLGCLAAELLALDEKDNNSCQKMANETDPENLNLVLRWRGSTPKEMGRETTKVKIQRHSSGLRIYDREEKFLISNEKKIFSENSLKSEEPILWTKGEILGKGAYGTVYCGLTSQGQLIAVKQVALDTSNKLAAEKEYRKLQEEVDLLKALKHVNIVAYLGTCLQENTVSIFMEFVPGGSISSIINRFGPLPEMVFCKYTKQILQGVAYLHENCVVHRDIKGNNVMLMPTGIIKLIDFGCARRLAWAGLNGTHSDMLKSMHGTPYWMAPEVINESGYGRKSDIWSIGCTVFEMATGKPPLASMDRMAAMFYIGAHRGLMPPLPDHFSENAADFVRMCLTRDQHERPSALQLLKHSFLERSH

[9] = target: Alpha-2C adrenergic receptor (Homo sapiens) (UniProt P18825); conditions: Compound concentration 10.0 uM
[10] = target: Serine/threonine-protein kinase PRP4 homolog (Homo sapiens) (UniProt Q13523); conditions: Compound concentration 1000.0 nM
Sequence of Serine/threonine-protein kinase PRP4 homolog (Homo sapiens) (Q13523 whole entry): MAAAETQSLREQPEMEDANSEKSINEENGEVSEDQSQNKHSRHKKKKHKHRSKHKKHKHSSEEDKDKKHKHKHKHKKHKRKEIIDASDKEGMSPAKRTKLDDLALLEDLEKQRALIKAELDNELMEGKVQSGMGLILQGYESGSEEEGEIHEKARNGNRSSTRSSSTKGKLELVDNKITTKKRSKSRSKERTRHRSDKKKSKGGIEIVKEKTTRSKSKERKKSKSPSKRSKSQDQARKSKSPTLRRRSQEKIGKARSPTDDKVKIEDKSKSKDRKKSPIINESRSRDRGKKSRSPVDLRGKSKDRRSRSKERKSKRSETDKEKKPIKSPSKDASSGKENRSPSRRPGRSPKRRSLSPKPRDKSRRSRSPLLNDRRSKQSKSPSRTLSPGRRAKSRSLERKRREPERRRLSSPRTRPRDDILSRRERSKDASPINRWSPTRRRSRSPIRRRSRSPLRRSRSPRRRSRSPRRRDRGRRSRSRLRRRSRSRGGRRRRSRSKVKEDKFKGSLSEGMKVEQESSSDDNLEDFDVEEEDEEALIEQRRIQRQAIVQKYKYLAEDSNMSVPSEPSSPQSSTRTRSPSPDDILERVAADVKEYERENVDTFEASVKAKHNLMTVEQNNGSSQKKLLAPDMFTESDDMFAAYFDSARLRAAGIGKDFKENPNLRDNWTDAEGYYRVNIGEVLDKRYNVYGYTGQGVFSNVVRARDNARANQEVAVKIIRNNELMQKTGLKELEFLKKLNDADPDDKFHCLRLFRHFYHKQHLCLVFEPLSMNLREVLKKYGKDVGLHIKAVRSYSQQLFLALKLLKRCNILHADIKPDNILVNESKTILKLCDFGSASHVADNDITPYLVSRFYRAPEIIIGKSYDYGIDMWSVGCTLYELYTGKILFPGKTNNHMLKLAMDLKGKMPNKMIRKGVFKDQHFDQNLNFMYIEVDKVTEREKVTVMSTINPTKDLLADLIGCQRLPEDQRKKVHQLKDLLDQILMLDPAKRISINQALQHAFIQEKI

[11] = target: 5-hydroxytryptamine receptor 3A (Homo sapiens) (UniProt P46098); conditions: Compound concentration 10.0 uM
Sequence of 5-hydroxytryptamine receptor 3A (Homo sapiens) (P46098 whole entry, canonical isoform): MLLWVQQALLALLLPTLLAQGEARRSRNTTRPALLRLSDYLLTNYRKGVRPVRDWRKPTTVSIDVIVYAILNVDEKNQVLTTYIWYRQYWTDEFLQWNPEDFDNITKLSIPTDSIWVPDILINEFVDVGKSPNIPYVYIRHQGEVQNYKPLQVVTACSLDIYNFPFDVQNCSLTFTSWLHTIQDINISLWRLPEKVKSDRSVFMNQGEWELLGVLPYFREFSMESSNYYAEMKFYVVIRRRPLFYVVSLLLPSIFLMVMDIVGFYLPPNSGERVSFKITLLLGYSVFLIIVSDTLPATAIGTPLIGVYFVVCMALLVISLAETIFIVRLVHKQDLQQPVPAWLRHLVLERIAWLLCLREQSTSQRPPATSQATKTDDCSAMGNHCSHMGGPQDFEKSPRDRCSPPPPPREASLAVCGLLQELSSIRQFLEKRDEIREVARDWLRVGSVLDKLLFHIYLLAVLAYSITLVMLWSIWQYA

[12] = target: Phosphatidylinositol 4,5-bisphosphate 3-kinase catalytic subunit gamma isoform (Homo sapiens) (UniProt P48736); conditions: Compound concentration 1000.0 nM
[13] = target: Mitogen-activated protein kinase 3 (Homo sapiens) (UniProt P27361); conditions: Compound concentration 1000.0 nM
[14] = system: Phosphatidylinositol 4,5-bisphosphate 3-kinase catalytic subunit alpha isoform (Homo sapiens), P42336 [I800L]; conditions: Compound concentration 1000.0 nM
[15] = system: Phosphatidylinositol 4,5-bisphosphate 3-kinase catalytic subunit alpha isoform (Homo sapiens), P42336 [E545A]; conditions: Compound concentration 1000.0 nM
[16] = target: Serine/threonine-protein kinase OSR1 (Homo sapiens) (UniProt O95747); conditions: Compound concentration 1000.0 nM
[17] = target: Inhibitor of nuclear factor kappa-B kinase subunit alpha (Homo sapiens) (UniProt O15111); conditions: Compound concentration 1000.0 nM
Sequence of Inhibitor of nuclear factor kappa-B kinase subunit alpha (Homo sapiens) (O15111 whole entry): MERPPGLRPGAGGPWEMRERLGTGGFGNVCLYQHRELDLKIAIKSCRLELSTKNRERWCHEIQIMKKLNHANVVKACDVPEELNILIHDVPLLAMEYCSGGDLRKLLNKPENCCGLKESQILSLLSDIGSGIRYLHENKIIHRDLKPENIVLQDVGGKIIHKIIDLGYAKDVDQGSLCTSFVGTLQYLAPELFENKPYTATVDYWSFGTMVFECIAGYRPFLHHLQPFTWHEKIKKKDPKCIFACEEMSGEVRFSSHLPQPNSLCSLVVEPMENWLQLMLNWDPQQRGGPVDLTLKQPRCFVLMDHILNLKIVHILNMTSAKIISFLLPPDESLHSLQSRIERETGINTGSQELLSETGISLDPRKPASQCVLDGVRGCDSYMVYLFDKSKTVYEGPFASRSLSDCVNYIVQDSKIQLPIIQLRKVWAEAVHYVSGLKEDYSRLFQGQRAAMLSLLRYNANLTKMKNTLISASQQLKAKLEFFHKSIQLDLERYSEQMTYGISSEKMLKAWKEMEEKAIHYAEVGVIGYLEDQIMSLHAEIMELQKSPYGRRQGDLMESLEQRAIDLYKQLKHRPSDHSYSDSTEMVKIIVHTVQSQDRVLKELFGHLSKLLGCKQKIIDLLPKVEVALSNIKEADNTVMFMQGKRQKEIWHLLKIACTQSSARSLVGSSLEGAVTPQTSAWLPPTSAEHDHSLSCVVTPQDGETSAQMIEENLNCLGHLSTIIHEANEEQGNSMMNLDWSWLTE

[18] = target: Mitotic checkpoint serine/threonine-protein kinase BUB1 (Homo sapiens) (UniProt O43683); conditions: Compound concentration 1000.0 nM
[19] = target: Tyrosine-protein kinase Lyn (Homo sapiens) (UniProt P07948); conditions: Compound concentration 1000.0 nM
[20] = target: RAC-alpha serine/threonine-protein kinase (Homo sapiens) (UniProt P31749); conditions: Compound concentration 1000.0 nM
[21] = target: Cyclin-dependent kinase 4 (Homo sapiens) (UniProt P11802); conditions: Compound concentration 1000.0 nM
[22] = target: Serine/threonine-protein kinase Nek6 (Homo sapiens) (UniProt Q9HC98); conditions: Compound concentration 1000.0 nM
[23] = target: Mitogen-activated protein kinase kinase kinase 6 (Homo sapiens) (UniProt O95382); conditions: Compound concentration 1000.0 nM
[24] = target: Serine/threonine-protein kinase LATS2 (Homo sapiens) (UniProt Q9NRM7); conditions: Compound concentration 1000.0 nM
[25] = target: Serine/threonine-protein kinase tousled-like 2 (Homo sapiens) (UniProt Q86UE8); conditions: Compound concentration 1000.0 nM
[26] = target: Mitogen-activated protein kinase 9 (Homo sapiens) (UniProt P45984); conditions: Compound concentration 1000.0 nM
Sequence of Mitogen-activated protein kinase 9 (Homo sapiens) (P45984 whole entry, looked up): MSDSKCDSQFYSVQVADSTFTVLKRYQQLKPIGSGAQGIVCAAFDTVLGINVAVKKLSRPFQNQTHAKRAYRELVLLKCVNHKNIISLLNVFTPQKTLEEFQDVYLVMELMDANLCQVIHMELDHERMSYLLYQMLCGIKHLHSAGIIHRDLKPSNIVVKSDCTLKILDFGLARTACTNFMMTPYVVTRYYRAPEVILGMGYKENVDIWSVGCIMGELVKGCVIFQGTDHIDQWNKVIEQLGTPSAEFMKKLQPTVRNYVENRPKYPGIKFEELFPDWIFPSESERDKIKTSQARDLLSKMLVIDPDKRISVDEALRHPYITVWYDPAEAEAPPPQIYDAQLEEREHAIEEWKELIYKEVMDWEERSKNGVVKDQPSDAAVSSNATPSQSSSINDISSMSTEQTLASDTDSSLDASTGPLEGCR

[27] = target: Dual specificity tyrosine-phosphorylation-regulated kinase 2 (Homo sapiens) (UniProt Q92630); conditions: Compound concentration 1000.0 nM
[28] = system: Receptor-type tyrosine-protein kinase FLT3 (Homo sapiens), P36888 [D835H]; conditions: Compound concentration 1000.0 nM
[29] = target: cGMP-dependent protein kinase 2 (Homo sapiens) (UniProt Q13237); conditions: Compound concentration 1000.0 nM
[30] = target: Mitogen-activated protein kinase 4 (Homo sapiens) (UniProt P31152); conditions: Compound concentration 1000.0 nM
Sequence of Mitogen-activated protein kinase 4 (Homo sapiens) (P31152 whole entry): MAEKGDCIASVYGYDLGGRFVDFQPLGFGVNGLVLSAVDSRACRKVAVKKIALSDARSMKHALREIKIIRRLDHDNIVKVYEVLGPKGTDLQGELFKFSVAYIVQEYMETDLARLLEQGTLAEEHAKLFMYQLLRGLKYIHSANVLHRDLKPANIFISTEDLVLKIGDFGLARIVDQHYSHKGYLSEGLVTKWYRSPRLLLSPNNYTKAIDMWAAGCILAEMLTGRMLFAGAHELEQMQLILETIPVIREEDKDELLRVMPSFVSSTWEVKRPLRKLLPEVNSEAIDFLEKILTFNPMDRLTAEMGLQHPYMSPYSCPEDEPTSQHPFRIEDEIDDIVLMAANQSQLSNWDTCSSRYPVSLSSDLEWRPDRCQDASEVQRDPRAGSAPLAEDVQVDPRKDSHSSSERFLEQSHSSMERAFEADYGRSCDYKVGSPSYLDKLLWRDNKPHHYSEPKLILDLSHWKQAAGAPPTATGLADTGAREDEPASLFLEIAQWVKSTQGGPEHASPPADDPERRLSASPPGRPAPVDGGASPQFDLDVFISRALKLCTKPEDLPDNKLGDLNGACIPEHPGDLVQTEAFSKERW

[31] = target: Serine/threonine-protein kinase 25 (Homo sapiens) (UniProt O00506); conditions: Compound concentration 1000.0 nM
[32] = target: Beta-3 adrenergic receptor (Homo sapiens) (UniProt P13945); conditions: Compound concentration 10.0 uM
Sequence of Beta-3 adrenergic receptor (Homo sapiens) (P13945 whole entry, looked up): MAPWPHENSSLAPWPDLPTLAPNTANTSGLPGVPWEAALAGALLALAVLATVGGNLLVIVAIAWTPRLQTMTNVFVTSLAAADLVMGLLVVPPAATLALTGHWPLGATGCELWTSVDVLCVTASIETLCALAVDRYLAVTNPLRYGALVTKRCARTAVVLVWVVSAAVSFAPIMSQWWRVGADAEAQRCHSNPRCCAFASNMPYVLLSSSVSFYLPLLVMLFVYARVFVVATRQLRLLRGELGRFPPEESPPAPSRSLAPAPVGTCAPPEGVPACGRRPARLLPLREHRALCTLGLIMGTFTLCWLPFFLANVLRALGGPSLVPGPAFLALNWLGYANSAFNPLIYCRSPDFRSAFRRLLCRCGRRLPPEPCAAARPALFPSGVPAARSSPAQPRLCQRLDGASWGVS

[33] = target: D(1A) dopamine receptor (Homo sapiens) (UniProt P21728); conditions: Compound concentration 10.0 uM
[34] = system: Tyrosine-protein kinase ABL1 (Homo sapiens), P00519 [Y253F]; conditions: Compound concentration 1000.0 nM
[35] = target: Serine/threonine-protein kinase ULK1 (Homo sapiens) (UniProt O75385); conditions: Compound concentration 1000.0 nM
[36] = target: Dual specificity mitogen-activated protein kinase kinase 2 (Homo sapiens) (UniProt P36507); conditions: Compound concentration 1000.0 nM
[37] = system: Mast/stem cell growth factor receptor Kit (Homo sapiens), P10721 [D816H]; conditions: Compound concentration 1000.0 nM
[38] = target: Myosin-IIIb (Homo sapiens) (UniProt Q8WXR4); conditions: Compound concentration 1000.0 nM

C[C@H](c1ccc(F)cc1)N(Cc1cccc(C(=O)O)c1)C(=O)c1cnc2ccccc2c1 [PF-05105679]
inactive: residual activity [1] 100% | residual activity [2] 100% | residual activity [3] 100% | inhibition [4] 0.7% | residual activity [5] 100% | residual activity [6] 78% | residual activity [7] 90% | residual activity [8] 72% | inhibition [9] 3.68% | residual activity [10] 100% | inhibition [11] -1.19% | residual activity [12] 100% | residual activity [13] 100% | residual activity [14] 61% | residual activity [15] 100% | residual activity [16] 100% | residual activity [17] 93% | residual activity [18] 89% | residual activity [19] 100% | residual activity [20] 100% | residual activity [21] 97% | residual activity [22] 92% | residual activity [23] 84% | residual activity [24] 64% | residual activity [25] 97% | residual activity [26] 81% | residual activity [27] 85% | residual activity [28] 84% | residual activity [29] 100% | residual activity [30] 93% | residual activity [31] 100% | inhibition [32] 2.81% | inhibition [33] -0.79% | residual activity [34] 100% | residual activity [35] 86% | residual activity [36] 100% | residual activity [37] 100% | residual activity [38] 100%
